Data as given in patent publication US8962660B2 (Bristol-Myers Squibb Company, priority 2013, dated 2015).

Columns and labels:
human GPR120 = biological target: T1, human GPR120 (Homo sapiens, UniProt Q5NUL3); assay: GPR120 pERK AlphaScreen SureFire assay (human); format: cell-based; conditions: CHO cells stably transfected with short form of human GPR120
T1 construct: expressed in transfected cells; host or cells: CHOA12 cells
T1 sequence (Q5NUL3 1-361): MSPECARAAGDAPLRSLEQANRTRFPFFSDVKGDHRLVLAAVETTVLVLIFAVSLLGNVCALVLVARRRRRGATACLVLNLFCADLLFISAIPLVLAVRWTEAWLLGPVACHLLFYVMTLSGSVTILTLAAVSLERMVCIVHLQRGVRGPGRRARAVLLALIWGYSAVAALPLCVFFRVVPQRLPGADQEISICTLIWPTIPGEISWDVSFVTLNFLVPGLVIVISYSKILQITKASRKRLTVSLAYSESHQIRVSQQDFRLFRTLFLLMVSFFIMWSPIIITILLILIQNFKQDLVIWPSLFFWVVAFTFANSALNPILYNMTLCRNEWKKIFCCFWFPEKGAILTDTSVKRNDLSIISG
Outline: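 CHOA12 cells stably expressing short-form human GPR120, serum-starved 2 h, were stimulated 7 min at 37 °C with compound (33.33 μM–0.56 nM, 11-point). pERK read by AlphaScreen SureFire; activation normalized to 50 μM linolenic acid and DMSO blank, EC50 by 4-parameter fit.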

C57BL/6 mice = assay: Acute oral glucose tolerance test; format: in vivo; conditions: oral glucose tolerance test in mice, dose of 30 mg/kg, AUC t=0-120 min vs vehicle
Procedure: 1) Acute Oral Glucose Tolerance Test
C57BL/6 mice were housed individually and fed a standard rodent chow diet. At approximately 11 weeks age, after a 5 h fast, these mice were orally treated with vehicle or test compounds 60 min before a glucose challenge (2 g/kg). Blood glucose levels were determined from tail bleeds taken at −60, 0, 15, 30, 60 and 120 min after the glucose challenge. The blood glucose excursion profile from t=0-120 min was used to calculate an area under the curve (AUC) for compound treatment. This AUC for compound treatment is compared to vehicle treatment.
In an oral glucose tolerance test in mice at dose of 30 mg/kg, Examples 6, 14 and 80 reduced glucose AUC levels by 40%, 30% and 60% respectively.

| Structure (SMILES) | EC50 (human GPR120) [nM] | reduced glucose AUC levels (C57BL/6 mice) [%] |
| --- | --- | --- |
| O=C(O)[C@H]1C[C@@H]1CCC12CCC(c3cccc(Oc4ccccc4)c3)(CC1)OC2 (single isomer, unassigned) [Example 14] | 350 | 30 |
| CCc1cccc(Oc2cccc(C34CCC(CC[C@@H]5C[C@H]5C(=O)O)(CC3)CO4)c2)c1 [Example 118, (1R,2R)-2-(2-(1-(3-(3-Ethylphenoxy)phenyl)-2-oxabicyclo[2.2.2]octan-4-yl)ethyl)cyclo-propane carboxylic acid] | 1890 |  |
| CCc1cccc(Oc2cccc(C34CCC(CCOCC(=O)O)(CC3)CO4)c2)c1 [Example 119, 2-(2-(1-(3-(3-Ethylphenoxy)phenyl)-2-oxabicyclo[2.2.2]octan-4-yl)ethoxy)acetic acid] | 1600 |  |
| O=C(O)C1CC1CCCC12CCC(c3cccc(Oc4ccccc4)c3)(CC1)OC2 (centres unmarked) [Example 120, 2-(3-(1-(3-Phenoxyphenyl)-2-oxabicyclo[2.2.2]octan-4-yl)propyl) cyclopropane carboxylic acid] | 2210 |  |

Continued, in another order:

| EC50 (human GPR120) [nM] | Structure (SMILES) | reduced glucose AUC levels (C57BL/6 mice) [%] |
| --- | --- | --- |
| 560 | O=C(O)COCCC12CCC(c3cccc(Oc4ccccc4)c3)(CC1)OC2 [Example 6, 2-(2-(1-(3-Phenoxyphenyl)-2-oxabicyclo[2.2.2]octan-4-yl)ethoxy)acetic acid] | 40 |
| 220 | Cc1ccc(Oc2cc(F)cc(C34CCC(CCOCC(=O)O)(CC3)CO4)c2)cc1F [Example 80, 2-(2-(1-(3-fluoro-5-(3-fluoro-4-methylphenoxy)phenyl)-2-oxabicyclo [2.2.2]octan-4-yl)ethoxy) acetic acid] | 60 |
| 1150 | O=C(O)COCCC12CCC(c3cccc(Oc4ccc(F)c(F)c4)n3)(CC1)OC2 [Example 116, 2-(2-(1-(6-(3,4-Difluorophenoxy)pyridin-2-yl)-2-oxabicyclo[2.2.2]octan-4-yl)ethoxy) acetic acid] |  |
| 5210 | O=C(O)COCCC12CCC(c3cccc(Oc4cccc(O)c4)c3)(CC1)OC2 [Example 117, 2-(2-(1-(3-(3-Hydroxyphenoxy)phenyl)-2-oxabicyclo[2.2.2]octan-4-yl)ethoxy)acetic acid] |  |
